Assay results from patent US12653880B2, “SARS-CoV-2 polypeptides” (priority 2021, dated 2026).

What was measured:
golden Syrian hamsters [1] = test: Peptide-specific antibody ELISA of sera from immunized hamsters; format: in vivo; conditions: listed in rank order
Description: Female golden Syrian hamsters (Charles River Laboratories, Wilmington, Mass.) are immunized with a 2-dose regimen with a 14-day interval between doses. Two weeks after the second dose, hamsters are euthanized. Hamster blood is collected by cardiac puncture and serum is prepared for the quantification of peptide-specific antibodies by an in-house indirect ELISA method. Spleens and draining lymph nodes serve as a source of cells for the IFN-γ ELISPOT and other assays. Unless otherwise noted, water-in-oil emulsions are administered subcutaneously, all other adjuvant formulations are administered intramuscularly.
A total of 52 peptides are tested for immunogenicity. Antibody responses in hamster sera specimens to individual peptides or peptide pools are quantified by ELISA.
Briefly, Immulon 4 HBX 96-well plates for ELISA are obtained from Thermo Fisher Scientific (Waltham, Mass.). The plate is coated with 1 μg/well of either a pool of peptides or individual peptides in coating buffer (50 mM sodium carbonate, pH 9.6) overnight at 4° C. […] Optical density at 450 nm (OD450) is read within 15 minutes after adding H2SO4 using a Spectramax® ABS Plus microplate reader (Molecular Devices, San Jose, Calif.) and the SoftMax® 7 Pro Software.

golden Syrian hamsters [2] = test: IFN-γ ELISPOT of spleen and lymph node cells from immunized hamsters; format: in vivo; conditions: listed in rank order
C57BL/6J mice = test: Antibody ELISA of sera from immunized mice; format: in vivo; conditions: listed in rank order
Description: Briefly, Immulon 4 HBX 96-well plates for ELISA are obtained from Thermo Fisher Scientific (Waltham, Mass.). The plate is coated with 1 μg/well of either a pool of peptides or individual peptides in coating buffer (50 mM sodium carbonate, pH 9.6) overnight at 4° C. After the coating buffer is removed, the plate is blocked with 2% BSA in PBS for 1 hour at room temperature, followed by washing three times with 0.5% Tween in PBS (PBST). Sera are diluted 1:200 in PBS and added to each well and the plate is incubated for 2 hours at room temperature. After incubation, the plate is washed three times with PBST. The secondary antibody is conjugated with HRP, and iss added at a 1:10,000 dilution in PBS. The plate is incubated for 1 hour at room temperature. After washing three times with PBST, TMBE-100 peroxidase substrate (Rockland Immunochemicals, Inc., Limerick, Pa.) is added, followed by 30 minutes incubation at room temperature. Finally, the enzymatic reaction is stopped by adding 2M H2SO4. Optical density at 450 nm (OD450) is read within 15 minutes after adding H2SO4 using a Spectramax® ABS Plus microplate reader (Molecular Devices, San Jose, Calif.) and the SoftMax® 7 Pro Software. […]

rVSV-SARS-CoV-2-S virus = conditions: in vivo

Sequence | Hamsters ELISA: top 10 immunogenic peptides, ranked on magnitude of responses (golden Syrian hamsters [1]) | Hamsters ELISPOT: top 10 immunogenic peptides, ranked on magnitude of responses (golden Syrian hamsters [2]) | Mice ELISA: top 10 immunogenic peptides, ranked on magnitude of responses (C57BL/6J mice) | neutralization activity of peptide-specific antibody (rVSV-SARS-CoV-2-S virus)
PQIQLAVTRMENAVGRD [ORF9b.1*11] | ORF9b.1*11 | ORF9b.1*11 | ORF9b.1*11 | –
SRIGMEVTPSGTWLTYTGAIKLDDKDPNFKDQVILLNKHIDAYK (N-overlap Long) | – | – | – | non-specific background
YFTSDYYQLYSTQLSTDTGV [ORF3a] | ORF3a | ORF3a | ORF3a | –
